Measured values taken from US12416052B2, “Capturing, concentrating, and detecting microbes in a sample using magnetic ionic liquids and recombinase polymerase amplification” (priority 2019, dated 2025).

How the values were obtained:
S. bongori = assay: MIL-based whole-cell extraction; design: species or system Salmonella bongori; settings: 1×10^6 CFU mL^−1 in TSB, 15 μL MIL
Description: (§1) A universal schematic for MIL-based cell extraction is depicted in FIG. 7B. A 1 mL volume of diluted cell suspension was added to a flat-bottomed 4-mL screw cap glass vial. Fifteen microliters of either the Ni(II) or Dy(III) MIL was added and dispersed into microdroplets by vortex agitation for 30 s. The aqueous phase was decanted following dispersive extraction, and the MIL was subjected to a brief wash step using 1 mL of nuclease-free water (Integrated DNA Technologies, Coralville, IA, USA) to ensure adequate removal of loosely or incidentally bound cells. […]
(§2) Following back-extraction, aliquots of the cell-enriched back-extraction medium were serially diluted in 0.1% peptone water and a 10 μL aliquot of each dilution was applied to a separate lane on square plates containing an appropriate agar medium. […] Colonies were counted and colony forming units (CFU) were determined. The enrichment factor (EF) for MIL-based extraction was calculated using Equation 1, where CMIL represents the concentration of bacteria in suspension following extraction using the MIL and CS is the initial concentration of bacteria in the sample.
In order to explore the broader utility of our approach, evaluation of additional cell types is needed. […] We later determined that VRBGA was a suitable common medium for this purpose and used this in our statistical analysis. […]

E. coli O157:H7 N192-5-1 = assay: MIL-based whole-cell extraction; design: species or system Escherichia coli; settings: 1×10^6 CFU mL^−1 in TSB, 15 μL MIL
Description: (§3) A universal schematic for MIL-based cell extraction is depicted in FIG. 7B. A 1 mL volume of diluted cell suspension was added to a flat-bottomed 4-mL screw cap glass vial. Fifteen microliters of either the Ni(II) or Dy(III) MIL was added and dispersed into microdroplets by vortex agitation for 30 s. The aqueous phase was decanted following dispersive extraction, and the MIL was subjected to a brief wash step using 1 mL of nuclease-free water (Integrated DNA Technologies, Coralville, IA, USA) to ensure adequate removal of loosely or incidentally bound cells. After washing, release of viable cells from the MIL extraction phase was carried out using a “back-extraction” step accomplished through addition of 1 mL of an ionically-rich nutritive medium comprised of 20 g L^−1 tryptone and 10 g L^−1 NaCl, followed by a 120 s vortex step. After back-extraction, aliquots of the cell-enriched back-extraction medium were enumerated using the track dilution method using 100×100 mm square, gridded TSA, BSA, CA or VRBGA plates.
(§4) Following back-extraction, aliquots of the cell-enriched back-extraction medium were serially diluted in 0.1% peptone water and a 10 μL aliquot of each dilution was applied to a separate lane on square plates containing an appropriate agar medium. The plates were then tilted at an approximately 80° angle for 15 min to allow the droplets to travel toward the opposite end of the plate. The plates were incubated for 24 h at 37° C. (TSA, VRBGA), for 48 h at 37° C. (BSA) or for 24 h at 37° C. (CA). Colonies were counted and colony forming units (CFU) were determined. The enrichment factor (EF) for MIL-based extraction was calculated using Equation 1, where CMIL represents the concentration of bacteria in suspension following extraction using the MIL and CS is the initial concentration of bacteria in the sample.
(§5) In order to explore the broader utility of our approach, evaluation of additional cell types is needed. We began this extended evaluation of the Ni(II) MIL with seven representative DNA subgroups of Salmonella and eight strains of E. coli O157:H7. Briefly, a 1 mL aliquot of TSB was inoculated with 1×10^6 CFU mL^−1 of bacteria, and spiked with 15 μL of the Ni(II) MIL. MIL-based extraction was performed and 10 μL aliquots of the back-extraction solution were enumerated using TSA and BSA plates (Salmonella) or TSA plates (E. coli O157:H7). […] We later determined that VRBGA was a suitable common medium for this purpose and used this in our statistical analysis. Average CFU counts were compared to standards that were not exposed to the Ni(II) MIL. Enrichment factors were calculated for Salmonella on both non-selective (TSA) and selective agars (BSA) and for E. coli O157:H7 on non-selective agar (TSA). […] Note: As BSA is a Salmonella-specific agar E. coli O157:H7 was not plated to BSA in this example.

E. coli O157:H7 N192-6-1 = assay: MIL-based whole-cell extraction; design: species or system Escherichia coli; settings: 1×10^6 CFU mL^−1 in TSB, 15 μL MIL
Description: as §3, §4, §5

E. coli O157:H7 N317-3-1 = assay: MIL-based whole-cell extraction; design: species or system Escherichia coli; settings: 1×10^6 CFU mL^−1 in TSB, 15 μL MIL
Description: as §3, §4, §5

E. coli O157:H7 N336-4-1 = assay: MIL-based whole-cell extraction; design: species or system Escherichia coli; settings: 1×10^6 CFU mL^−1 in TSB, 15 μL MIL
Description: as §3, §4, §5

E. coli O157:H7 N366-2-2 = assay: MIL-based whole-cell extraction; design: species or system Escherichia coli; settings: 1×10^6 CFU mL^−1 in TSB, 15 μL MIL
Description: as §3, §4, §5

E. coli O157:H7 N405-5-8 = assay: MIL-based whole-cell extraction; design: species or system Escherichia coli; settings: 1×10^6 CFU mL^−1 in TSB, 15 μL MIL
Description: as §3, §4, §5

E. coli O157:H7 N886-71 = assay: MIL-based whole-cell extraction; design: species or system Escherichia coli; settings: 1×10^6 CFU mL^−1 in TSB, 15 μL MIL
Description: as §3, §4, §5

P. eucalypti 299R = assay: MIL-based whole-cell extraction; design: species or system Pantoea eucalypti; settings: EF determined using Columbia Agar
Description: as §1, §2

C. sakazakii 01088P = assay: MIL-based whole-cell extraction; design: species or system Cronobacter sakazakii; settings: EF determined using Tryptic Soy Agar
Description: as §1, §2

E. coli O157:H7 = format: cell-based, Escherichia coli; settings: no significant differences (p-value=0.4491)
Description: The following statistical analysis was performed in SAS 9.4. Four master suspensions of bacteria were prepared for four Salmonella enterica serovars: subsp. typhimurium, subsp. arizonae, subsp. diarizonae and subsp. houtenae. Two master suspensions were made for the remaining three Salmonella serovars or species: S. enterica subsp. indica, subsp. salamae and S. bongori. For E. coli O157:H7, two master suspensions of bacteria were prepared for each of the eight strains studied. For all bacteria tested, two replicate extractions from the same master suspension were performed, using the 10-3 dilution. Following MIL-based capture, back-extraction solutions were plated to non-selective agar (TSA) and selective agar (BSA) for Salmonella and SMAC for E. coli. To identify whether significant differences existed for the capture of Salmonella and E. coli O157:H7, we applied a linear mixed model for the response variable (enrichment factor) with log transformation in order to reduce skewness. […]
In order to explore the broader utility of our approach, evaluation of additional cell types is needed. […] We later determined that VRBGA was a suitable common medium for this purpose and used this in our statistical analysis. […] Enrichment factors were calculated for Salmonella on both non-selective (TSA) and selective agars (BSA) and for E. coli O157:H7 on non-selective agar (TSA). […]

CCCCCCCCCCCCCC[P+](CCCCCC)(CCCCCC)CCCCCC.O=C([CH-]C(=O)C(F)(F)F)C(F)(F)F.O=C([CH-]C(=O)C(F)(F)F)C(F)(F)F.O=C([CH-]C(=O)C(F)(F)F)C(F)(F)F.[Ni+2] [Ni(II) MIL, [P66614^+][Ni(hfacac)3^−]]
Enrichment Factor (BSA) (S. bongori): 4
Enrichment Factor (TSA) (S. bongori): 4
Enrichment Factor (TSA) (E. coli O157:H7 N192-5-1): 7
Enrichment Factor (TSA) (E. coli O157:H7 N192-6-1): 9
Enrichment Factor (TSA) (E. coli O157:H7 N317-3-1): 4
Enrichment Factor (TSA) (E. coli O157:H7 N336-4-1): 3
Enrichment Factor (TSA) (E. coli O157:H7 N366-2-2): 4
Enrichment Factor (TSA) (E. coli O157:H7 N405-5-8): 2
Enrichment Factor (TSA) (E. coli O157:H7 N886-71): 4
Enrichment Factor (P. eucalypti 299R): 169
Enrichment Factor (C. sakazakii 01088P): 12
MIL-conferred injury: recovery on TSA vs VRBGA (E. coli O157:H7): no injury could be detected
